Test results taken from the NIST ThermoML archive (doi:10.1016/j.jct.2005.01.004).
± gives the expanded uncertainty stated by the source.

Key:
[1] = 298.15 K; 101.33 kPa; Liquid
[2] = refractive index (Na D-line) (dimensionless); conditions: 298.15 K; 101.33 kPa; Liquid; Standard Abbe refractometry

mass density [1]: 786.63 ± 0.61 kg/m3
refractive index [2]: 1.3264 ± 0.0007
SMILES: CO [methanol]
